The text below walks through data of PubChem BioAssay AID651703 (Broad Institute, 2012).

The structures appear in SMILES notation.

The assay deals with Transforming acidic coiled-coil-containing protein 3 (Homo sapiens) (UniProt Q9Y6A5). Description: inhibition of ARNT PAS-B/TACC3 complex formation – biochemical, AlphaScreen, cherry-picked samples, confirmation (AID 651703).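 Also: TACC3 partner is the GST-tagged E629A mutant dimer; hits lower the signal meaning they disrupt ARNT binding to TACC3.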 Conditions: AlphaScreen His-ARNT PAS-B / GST-TACC3 binding, luminescence. On the technique in general: Alpha assays give light when donor and acceptor beads are brought close together.
Regarding `COC(=O)c1ccc(C(=O)O)nc1`, the AC50 was 32.8 µM. Take `Cc1ccc(Nc2nc(N)nc(CN3CCCCCC3)n2)cc1`: the concentration at half-maximal activity (AC50) was 34.4 µM. As for `COc1cc2c(c(OC)c1OC)-c1ccc(O)c(=O)cc1[C@@H](NC(C)=O)CC2`, the concentration at half-maximal activity (AC50) was 40.8 µM. On to `OCCN(Cc1cccnc1)Cc1ccccn1`, for which the AC50 was 2.28 µM. On to `Cc1cccc(C(=O)Nc2nnc(-c3cccnc3)o2)c1`, for which the half-maximal activity concentration (AC50) was 21.7 µM. As to `O=C(CSc1ccc(-c2ccccn2)nn1)N1CCCc2ccccc21`, the AC50 was 5.32 µM. For the compound `CCCCCOc1ccc(NC(=O)CSc2cccc3cccnc23)cc1`, the AC50 was 9.17 µM. Regarding `COc1ccc(Br)cc1CNc1ccc(O)cc1`, the AC50 was 37.6 µM.

`O=C(NC[C@@H]1[C@H](c2ccccc2)[C@H](CO)N1Cc1ccccn1)C1CC1`: the AC50 is 59.6 µM.

On to `O=C(CSc1nnc(CNC(=O)c2ccc(F)cc2)o1)Nc1nccs1`, for which the AC50 was 61.9 µM.

As to `O=S1(=O)N=C(N/N=C/c2ccccn2)c2ccccc21`, the AC50 is 4.02 µM.

On to `c1ccc(-c2nn[nH]n2)nc1`, for which the AC50 was 5.22 µM.

`Cc1cccc(CSc2cccc3cccnc23)c1`: the AC50 is 1.79 µM. On to `Oc1c(I)cc(I)c2cccnc12`, for which the AC50 was 7.46 µM. As for `O=C(CSc1ccc2nnc(-c3ccccn3)n2n1)Nc1ccccc1C(F)(F)F`, the AC50 was 50.7 µM. As for `O=C(Nc1nnc(-c2cccs2)o1)c1ccco1`, the AC50 is 48.4 µM.

As to `Oc1c(C(Nc2ccccn2)c2cccnc2)cc(Cl)c2cccnc12` (configuration not stated), the half-maximal activity concentration (AC50) is 5.67 µM. The figure for `Cc1ccc(C)c(CSc2ccc3nnc(-c4ccccn4)n3n2)c1` is 23.3 µM; for `CCOC(=O)c1c(OCC)[nH]c2c1cc(O)c1ccccc12` it is 56.9 µM. Take `O=c1[nH][nH]c(=O)c2nc(Nc3ccccc3)ncc12`: the AC50 was 66.1 µM.

Take `COCCN=c1scc(-c2ccco2)n1/N=C/c1ccc(O)c(O)c1O`: the AC50 was 9.77 µM. On to `C[C@@H]1CN([C@H](C)CO)C(=O)c2cc(NC(=O)Nc3ccc(C(F)(F)F)cc3)ccc2O[C@@H](C)CCCCO[C@@H]1CN(C)Cc1ccc2c(c1)OCO2`, for which the AC50 was 38.1 µM. The value for `CCCCCC/C=N/Nc1nnc(Cc2ccc(OC)c(OC)c2)c(=O)[nH]1` was 25.1 µM. In the case of `COc1cc(CNCc2ccccn2)ccc1OCc1cccc(Cl)c1`, the AC50 was 62.6 µM.

Take `COc1cc(NS(=O)(=O)c2ccc(Nc3nc(-c4ccccn4)cs3)cc2)nc(OC)n1`: the AC50 was 17.3 µM. Turning to `CCOc1ncccc1C(=O)OCC(=O)Nc1nnc(-c2ccccc2)o1`, the AC50 is 21.6 µM. As for `O=C(CC(NCc1ccccn1)C(=O)O)Nc1ccccc1Cl` (configuration not stated), the half-maximal activity concentration (AC50) is 0.638 µM. Take `c1ccc(-c2n[nH]c(-c3ccccn3)n2)cc1`: the AC50 was 11.6 µM.

As for `CCCC(=O)NC(c1ccccc1)c1ccc2cccnc2c1O` (configuration not stated), the AC50 was 4.6 µM.

Regarding `COc1cccc(C2c3[nH]c4ccccc4c3CCN2Cc2ncc[nH]2)c1` (configuration not stated), the AC50 is 38 µM.

On to `NNc1ccc(S(=O)(=O)N2CCCCC2)cn1`, for which the AC50 is 9.17 µM. In the case of `Cc1ccccc1Nc1nnc(SCC(=O)NC(=O)NCc2ccco2)s1`, the half-maximal activity concentration (AC50) is 71.2 µM.

On to `OCCN1CCN(Cc2cc(Cl)c3cccnc3c2O)CC1`, for which the AC50 is 1.34 µM. Consider `COc1cccc(C(=O)Nc2nnc(-c3cccs3)o2)c1`, for which the concentration at half-maximal activity (AC50) is 21.4 µM. The value for `CC(C)C1Cc2c(sc3ncnc(NN)c23)CO1` (configuration not stated) was 7.67 µM; that for `COc1ccc(O)c(/C=N\NC(=O)CCn2nnc3ccccc32)c1` was 33.4 µM; that for `CCCCCc1cc(=O)oc2c(C(CCN(CC)CC)c3ccc(N(C)C)cc3)c(OC)cc(OC)c12` (configuration not stated) was 5.02 µM. For `CC1OC(CC(=O)O)CC2=C1C(=O)c1c(O)cccc1C2=O` (configuration not stated), the half-maximal activity concentration (AC50) was 46.9 µM. The figure for `Cn1c(CNc2ccccc2O)nc2ccccc21` is 21.8 µM. Regarding `O=S(=O)(N[C@@H]1CC[C@@H](CCn2cc(-c3ccccn3)nn2)O[C@@H]1CO)c1cccc(Cl)c1`, the AC50 was 27.2 µM. As for `O=C(NN=Cc1c(O)ccc2ccccc12)c1ccncc1`, the half-maximal activity concentration (AC50) was 9.94 µM. In the case of `Oc1ccc(CN2CCN(Cc3ccccc3)CC2)c2cccnc12`, the half-maximal activity concentration (AC50) was 2.41 µM.

The AC50 is the concentration at which the activity in the assay is half-maximal.
